Key:
Stomoxys calcitrans = assay: contact activity via glass contact, stable fly; conditions: rate 10 ppm
Method: (§1) 1. Screening method to test contact activity against stable fly, yellowfever mosquito, house mosquito, malaria mosquito, cat flea, and brown dog tick via glass contact
(§2) Glass vials (20 ml scintillation vials) were treated with 0.5 ml of a solution of active ingredient in acetone. Each vial was rolled uncapped for ca. 10 minutes to allow the a.i. to completely coat the vial and to allow for full drying of the acetone. Insects or ticks were placed into each vial.
(§3) Each test was replicated at least 3 times.

Aedes aegypti [1] = assay: contact activity via glass contact, yellowfever mosquito; conditions: rate 10 ppm
Method: as §1, §2, §3

Anopheles albimanus [2] = assay: contact activity via water treatment, malaria mosquito larvae; conditions: malaria mosquito larvae (4th-instars), rate 1.0 ppm
Method: (§4) 2. Screening method to test contact activity against yellowfever mosquito, southern house mosquito, and malaria mosquito larvae via water treatment
(§5) Well plates were used as test arenas. The active ingredient was dissolved in acetone and diluted with water to obtain the concentrations needed. The final solutions containing appr. 1% acetone were placed into each well. Approximately 10 mosquito larvae (4th-instars) in 1 ml water were added to each well. Larvae were fed one drop of liver powder each day. The dishes were covered and maintained at 22° C. Mortality was recorded daily and dead larvae and live or dead pupae were removed daily. At the end of the test remaining live larvae were recorded and percent mortality was calculated.
as §3

Anopheles albimanus [3] = assay: contact activity via glass contact, malaria mosquito; conditions: rate 1 ppm
Method: as §1, §2, §3

Culex quinquefasciatus [4] = assay: contact activity via water treatment, southern house mosquito larvae; conditions: house mosquito larvae (4th-instars), rate 10 ppm
Method: as §4, §5, §3

Ctenocephalides felis = assay: contact activity via glass contact, cat flea; conditions: rate 100 ppm
Method: as §1, §2, §3

Aedes aegypti [5] = assay: contact activity via water treatment, yellowfever mosquito larvae; conditions: yellowfever mosquito larvae (4th-instars), rate 10 ppm
Method: as §4, §5, §3

Culex quinquefasciatus [6] = assay: contact activity via glass contact, house mosquito; conditions: rate 0.5 ppm
Method: as §1, §2, §3

Row | SMILES | Days or Hours to achieve 100% mortality (Stomoxys calcitrans) [h] | Days or Hours to achieve 100% mortality (Aedes aegypti [1]) [h] | Days or Hours to achieve 100% mortality (Anopheles albimanus [2]) [days] | Days or Hours to achieve 100% mortality (Anopheles albimanus [3]) [days] | Days or Hours to achieve 100% mortality (Culex quinquefasciatus [4]) [days] | Days or Hours to achieve 100% mortality (Ctenocephalides felis) [days] | Days or Hours to achieve 100% mortality (Aedes aegypti [5]) [days] | Days or Hours to achieve 100% mortality (Culex quinquefasciatus [6]) [h]
1 | CCN/C(=N\Nc1c(Cl)cc(C(F)(F)F)cc1Cl)C1(C)CC1(Cl)Cl (stereo not drawn) [1-2, N-Ethyl-2,2-dichloro-1-methylcyclopropane-carboxamide-2-(2,6-dichloro-α,α,α-trifluoro-p-tolyl)hydrazone] | 4 | 4 | 1 | 1 | 1 | 2 | 2 | 4
2 | CCN/C(=N\Nc1c(Cl)cc(C(F)(F)F)cc1Cl)C(C)(C)C [I-1, N-ethyl-2,2-dimethylpropionamide-2-(2,6-dichloro-α,α,α-trifluoro-p-tolyl)-hydrazone] | 4 | 4 | 1 | 1 | 1 | 2 | 2 | 4

— patent publication US20070259962A1, “Use of N-Arylhydrazine Derivatives for Combating Pests in and on Animals” (priority 2003, published 2007)
